The values that follow come from patent publication US20070190582A1, “Platelet surface PF4 antigenic complexes as a diagnostic indicator in heparin-induced thrombocytopenia” (priority 2005, published 2007).

For test [1], the system named is hPF4/FcγRIIA double transgenic mice given KKO. Briefly: Therapeutic intervention in the murine HIT model (platelet counts after KKO). The class given is in vivo, mouse. On the procedure: Transgenic mice expressing different amounts of hPF4 mRNA per platelet have been described previously (26). Three lines bearing 1, 6 and 22 copy numbers of the human PF4 gene/haplotype were used. […] Transgenic mice expressing FcγRIIA were generously provided by Steven McKenzie, Thomas Jefferson University (30) and crossbred with these hPF4 mice. All murine lines were backcrossed onto the C57BL/6J background>8 times. Genomic makeup of mice was determined by PCR analysis using oligonucleotide primers described previously (26,30). Controls included littermates transgenic for hPF4 or FcγRIIA only. Mice were 6-10 weeks of age at the time of study. Total platelet hPF4 levels in the various transgenic hPF4 lines were determined using an Asserachrom PF4 kit (Diagnostica Stago) as per the manufacturer using recombinant hPF4 as the standard. Mouse blood was obtained by retroorbital puncture. The plate was read at 450 nm in a THERMOmax microplate reader (Molecular Devices). Measurements of surface KKO binding in vivo in WT and the hPF4 transgenic mice were determined after IV injection of 20 μg of FITC-labeled KKO in 200 μL of sterile PBS via the tail vein followed by withdrawal of 50 μL of blood from the retroorbital plexus 10 min later. The blood was coimmunostained for CD41, and KKO binding to CD41-positive cells was estimated by flow cytometry. In other studies, KKO was injected intraperitoneally (IP) in a final volume of 200 μL diluted with sterile PBS. Porcine heparin (200 μL of 100 U/mL stock; Abbott Laboratories) was injected subcutaneously (SQ) in a subgroup of studied animals beginning at 24 hrs for 4 consecutive days. Complete blood counts were measured in 50 μl of whole blood obtained by retroorbital puncture into Safe-T-Fill® minicapillary blood collection tubes (Kabe Labortechnik). Platelets were enumerated using an automatic cell counter (HEMAVET, Drew Scientific). In the therapeutic intervention studies, either porcine heparin (100 U/kg) or protamine sulfate (2 mg/kg) were injected IV over 2 mins. KKO (200 μg) was given IP 1 hr later (zero time point). Injection of heparin or protamine was repeated 21 and 45 hr later. Blood counts were determined as above.
Platelet counts between groups were compared using the Student's t-test. Statistical analyses were performed using Graph Pad Prism (Graphpad Software). Differences were considered significant at a p value of <0.05.

Test [2] concerns the target T1, hPF4 bound to surface GAGs of murine platelets (Homo sapiens, UniProt P02776).
T1 construct: made in house; host or cells: E. coli BL21DE30 pLysS, pT7-7 plasmid
T1 sequence (P02776 32-101): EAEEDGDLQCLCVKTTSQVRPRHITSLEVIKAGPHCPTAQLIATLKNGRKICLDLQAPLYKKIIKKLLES
Briefly: KKO binding to murine platelets in the presence of hPF4 (flow cytometry). To be noted: mPF4 null platelets, enzyme 0-5 U/ml, 37° C., 30 min. Details: species or system mouse. On the procedure:
Studies were performed using human platelets or platelets from WT and transgenic mice (see below for the description of the mice). Human blood was collected after informed consent from healthy, aspirin-free volunteers in acid citrate dextrose (ACD, pH 4.5, 10:1, vol/vol) under a protocol approved by the Institutional Review Board for Studies involving Human Subjects of the Children's Hospital of Philadelphia. All studies involving mice were approved by the same Institution's Institute Animal Care and Use Committee. Blood was centrifuged at 200 g for 15 min at room temperature (RT) to generate platelet-rich plasma (PRP). PGE1 (final concentration 1 μg/mL, Sigma) was added to the PRP to prevent spontaneous platelet activation. […] Total immunodetectable platelet hPF4 was determined using murine platelets completely deficient in murine PF4 (mPF4 null (29)). […] Autoradiograpic bands over the linear range of exposure were analyzed on a UMAX Vista-58 scanner, and the data analyzed by developing a histogram of the calculated density using the NIH program ImageJ (rsb.info.nih.gov). Total surface PF4 binding was also detected using mPF4 null platelets after paraformaldehyde crosslinking, as above. […] FITC-labeled KKO (50 μg/mL) was added for 15 min, the sample was diluted 1/10 with Tyrode's buffer and antibody binding was measured by flow cytometry as above. […]
(In flow cytometry, cells or beads pass a laser one at a time.)

[3] abbreviates: hPF4Mid/FcγRIIA+ mice, heparin 100 U/kg or protamine sulfate 2 mg/kg IV 1 hr before 200 μg KKO IP.

For protamine sulfate, in test [1] (hPF4High/FcγRIIA+ mice, heparin 100 U/kg or protamine sulfate 2 mg/kg IV), the “Effect on KKO-induced thrombocytopenia” value was “retained its efficacy”. For the same molecule, the “Platelet counts versus mice receiving antibody alone at 24 and 48 hr” value in test [1] (hPF4High/FcγRIIA+ mice, protamine sulfate 2 mg/kg IV) is reported as “significantly higher”. Besides, in test [1] (setting [3]), the “Effect on KKO-induced thrombocytopenia at 3 hr” value is listed as “prevented thrombocytopenia” and the “Effect on KKO-induced thrombocytopenia at 24 hr” value was “decreased the severity of thrombocytopenia”. Moreover, in test [1] (hPF4Mid/FcγRIIA+ mice, repeat at 21 and 45 hr), the “Platelet counts after repeat doses on the second and third days” value is “maintained platelet counts above the level in mice that had received KKO alone”.

B1: heparinase 1: heparinase I (Sigma), enzyme used to pretreat platelets (protein, UniProt Q05819 22-384, looked up)
Heparin lyase I: QQKKSGNIPYRVNVQADSAKQKAIIDNKWVAVGINKPYALQYDDKLRFNGKPSYRFELKAEDNSLEGYAAGETKGRTELSYSYATTNDFKKFPPSVYQNAQKLKTVYHYGKGICEQGSSRSYTFSVYIPSSFPDNATTIFAQWHGAPSRTLVATPEGEIKTLSIEEFLALYDRMIFKKNIAHDKVEKKDKDGKITYVAGKPNGWKVEQGGYPTLAFGFSKGYFYIKANSDRQWLTDKADRNNANPENSEVMKPYSSEYKTSTIAYKMPFAQFPKDCWITFDVAIDWTKYGKEANTILKPGKLDVMMTYTKNKKPQKAHIVNQQEILIGRNDDDGYYFKFGIYRVGNSTVPVTYNLSGYSETAR
On to B1, for which the “Effect of pretreating platelets on KKO binding” value in test [2] is recorded as “not heparinase 1 alone (data not shown), decreased KKO binding”.
